Measured values as given in patent US10450314B2, “Pteridine derivatives as modulators of ROR gamma” (Boehringer Ingelheim International GmbH, priority 2015, dated 2019).

How the values were obtained:
RORγ = target: T1, RORγ (Homo sapiens, UniProt P51449); assay: RORγ Reporter Gene Assay (RGA), luciferase transactivation in transiently transfected HEK 293 cells; format: cell-based; settings: HEK 293 cells cotransfected with pGL4.3 luc2P/GAL4UAS and pBIND Gal4DBD hRORC LBD; 20-24 h incubation
T1 construct: expressed in transfected cells; host or cells: HEK 293 cells, transiently cotransfected with pGL4.3 luc2P/GAL4UAS/Hygro reporter
T1 sequence (P51449 269-508 limits assumed): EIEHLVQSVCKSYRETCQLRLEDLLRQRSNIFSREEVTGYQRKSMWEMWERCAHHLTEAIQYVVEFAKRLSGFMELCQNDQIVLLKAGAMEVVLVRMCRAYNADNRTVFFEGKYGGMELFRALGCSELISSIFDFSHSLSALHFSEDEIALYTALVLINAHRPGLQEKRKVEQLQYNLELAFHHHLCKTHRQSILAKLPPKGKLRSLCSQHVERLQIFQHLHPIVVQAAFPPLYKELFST
Protocol: Reporter Gene Assay (RGA)
A nuclear receptor transactivation assay is performed to quantitate the ability of test compounds to inhibit RORγ transactivation of a luciferase reporter. A similar assay is described in: Khan et al., Bioorganic & Medicinal Chemistry Letters 23 (2013), 532-536. The system uses transiently transfected HEK 293 cells cotransfected with two plasmids (pGL4.3, luc2P/GAL4UAS/Hygro, and pBIND, Gal4DBD hRORC LBD1-3). The positive control is co-transiently transfected with both plasmids, and the negative control contains the pGL4.3 promoter sequence. Assays are assembled in 384 well plates where transiently transfected cells and test compound at varying concentrations are incubated for 20-24 h. The next day, assays plates are taken out and equilibrated at RT for 20-30 minutes. Bright-Glo™ Luciferase Assay System is used to detect Luciferase production. After addition of Bright GLO detection reagent, the plates are incubated at RT for 20 minutes. The plates are read on an Envision plate reader to measure luminescence signal. The RLU signal is converted to POC relative to control and blank wells.
Compound Dilution Buffer:
Bright Glo Luciferase Assay System: Promega #E2620
Thaw lysis buffer provided in kit, add 100 mL lysis buffer to substrate powder.

[1] = Human liver microsome (HLM) metabolic stability assay; format: in vitro ADME; settings: human liver microsomes, 1 uM compound, 37° C., 60 min; % hepatic blood flow
Protocol: Assessment of Metabolic Stability
The 5 time point, high-throughput human liver microsome (HLM) metabolic stability assay is designed to determine in vitro compound metabolism. Compounds are incubated with HLMs at a concentration of 1 uM, at 37° C., for a total of 60 min. The percent of compound remaining at 5, 15, 30, and 60 min is used to calculate the t1/2 (min), CLint (mL/min/kg), CLh (mL/min/kg), and % Qh. The assay is based on a 96-well format and can accommodate up to 92 compounds per plate (n=1).
Using the 96-well multi-channel head, the Biomek FX, equipped with a Peltier heating block/shaker, is programmed to accomplish the following steps: • 1. Pipette 175 uL of 1.15 mg/mL microsomes into each of the 96 conical inserts (Analytical Sales and Products, catalog number 96PL05) that fit into the plate of the Peltier heating block/shaker (the incubation plate) • 2. Add 5 uL of compounds from the assay plate to the microsomes and shake the mixture at 600 rpm at 42.1° C. for 10 min (a setting of 42.1° C. on the Peltier is required for the samples to incubate at 37° C.) • 3. After 10 min, prompt the user to add the NADPH plate to the deck and add 20 uL from the NADPH plate to the incubation plate to start the reaction • 4. Add 215 uL of 100%, cold acetonitrile containing an internal standard(s) to a 0 minute, 5 minute, 15 minute, 30 minute, and 60 minute “quench” plate • 5. At 0 min, 5 min, 15 min, 30 min, and 60 min into the incubation, aspirate 12 uL from the incubation mixture and add it to the quench solution to stop the reaction • 6. Add 185 uL HPLC grade water to each well of the 0, 5, 15, 30 and 60 minute quench plates to dilute compounds to the appropriate concentration for the mass spectrometer
After all time points are collected, the quench plates are sealed with 96-well pierceable plate mats or heat sealing foil and centrifuged at 3000 rpm for 15 min to pellet the microsomes.
The plates are analyzed using LC/MS/MS with electron spray ionization (ESI) and the previously determined MRM transitions. The LC method includes the following parameters:
Using an Excel template in Activitybase, the peak areas corresponding to 5, 15, 30 and 60 min are compared to the peak area at 0 min to calculate the percent of remaining compound using the following equation:
Percent compound remaining=(AUC at Time t min/AUC at Time 0 min)×100 where t=0, 5, 15, 30 or 60 min.
Time (min) is plotted against the natural logarithm (Ln) of the percent compound remaining to determine the slope. The slope is used to calculate t1/2 (min) using the equation, t1/2=0.693/slope.
Clint, Intrinsic Clearance

Row | SMILES | IC50 (RORγ) [µM] | HLM (% Qh) [1] [% Qh]
1 | CC[C@H](C)n1c(=O)c(NCc2ccc(S(C)(=O)=O)cn2)nc2c(C)nc(-c3c(OC)ncnc3C3CC3)nc21 [Example 13] | 0.099 | <24
2 | COc1ncnc(C2CC2)c1-c1nc(C)c2nc(NCc3ccc(S(C)(=O)=O)cn3)c(=O)n([C@@H](C)C3CC3)c2n1 [Example 5] | 0.073 | 28
3 | CC[C@@H](C)n1c(=O)c(NCc2ccc(S(C)(=O)=O)cn2)nc2c(C)nc(-c3c(OC)ncnc3C3CC3)nc21 [Example 2] | 0.11 | <24
4 | COc1ncnc(C2CC2)c1-c1nc(C)c2nc(NCc3ccc(S(C)(=N)=O)cn3)c(=O)n([C@@H](C)C(F)(F)F)c2n1 (single isomer, unassigned) [Example 105a] | 0.89 | <24
5 | CCS(=N)(=O)c1ccc(CNc2nc3c(C)nc(-c4c(C)ncnc4C4CC4)nc3n([C@@H](C)C(F)(F)F)c2=O)nc1 (single isomer, unassigned) [Example 102b] | 0.64 | <24
6 | CCS(=O)(=O)c1cnc(CNc2nc3c(C)nc(-c4c(C)ncnc4C4CC4)nc3n([C@@H](C)C(F)(F)F)c2=O)nc1 [Example 23] | 0.178 | <24
7 | CC[C@H](C)n1c(=O)c(NCc2ncc(S(=O)(=O)CC)cn2)nc2c(C)nc(-c3c(C)ncnc3C3CC3)nc21 [Example 16] | 0.113 | <24
8 | CCS(=N)(=O)c1ccc(CNc2nc3c(C)nc(-c4c(C)ncnc4C4CC4)nc3n([C@@H](C)C(F)(F)F)c2=O)nc1 (single isomer, unassigned) [Example 102a] | 0.535 | <24
9 | CC[C@@H](C)n1c(=O)c(NCc2ccc(S(=O)(=O)CC)cn2)nc2c(CO)nc(-c3c(C)ncnc3C3CC3)nc21 [Example 51] | 0.23 | <24
10 | CCS(=O)(=O)c1ccc(CNc2nc3c(C)nc(-c4c(C)ncnc4C4CC4)nc3n([C@@H](C)CF)c2=O)cn1 [Example 50] | 2.7 | <24
11 | CC[C@H](C)n1c(=O)c(NCc2ccc(S(C)(=O)=O)nc2)nc2c(C)nc(-c3c(OC)ncnc3C3CC3)nc21 [Example 11] | 0.135 | 26
12 | CCS(=N)(=O)c1ccc(CNc2nc3c(C)nc(-c4c(C)ncnc4C4CC4)nc3n([C@@H](C)C(F)(F)F)c2=O)cc1 (single isomer, unassigned) [Example 34a] | 0.21 | 25

Continued by falling IC50 (RORγ), values first:

Row | IC50 (RORγ) [µM] | HLM (% Qh) [1] [% Qh] | SMILES
13 | 0.27 | <24 | CCS(=N)(=O)c1ccc(CNc2nc3c(C)nc(-c4c(C)ncnc4C4CC4)nc3n([C@@H](C)C3CC3)c2=O)nc1 (single isomer, unassigned) [Example 42a]
14 | 0.235 | 73 | CC[C@@H](C)n1c(=O)c(NCc2ccc(S(=N)(=O)CC)cc2)nc2c(C)nc(-c3c(OC)ncnc3C3CC3)nc21 (single isomer, unassigned) [Example 29a]
15 | 0.23 | 41 | COc1ncnc(C2CC2)c1-c1nc(C)c2nc(NCc3ccc(S(C)(=N)=O)cc3)c(=O)n([C@@H](C)C(F)(F)F)c2n1 (single isomer, unassigned) [Example 99a]
16 | 0.205 | <24 | CCS(=O)(=O)c1cnc(CNc2nc3c(C)nc(-c4c(C)ncnc4C4CC4)nc3n([C@@H](C)C(F)F)c2=O)nc1 [Example 94]
17 | 0.175 | 55 | Cc1ncnc(C2CC2)c1-c1nc(C)c2nc(NCc3ccc(S(C)(=O)=O)cn3)c(=O)n([C@@H](C)C(F)(F)F)c2n1 [Example 18]
18 | 0.155 | <24 | CC[C@@H](C)n1c(=O)c(NCc2ccc(S(C)(=O)=O)cn2)nc2c(C)nc(-c3c(C)ncnc3C3CC3)nc21 [Example 73]
19 | 0.07 | <24 | Cc1ncnc(C2CC2)c1-c1nc(C)c2nc(NCc3ccc(S(C)(=O)=O)cn3)c(=O)n([C@@H](C)C3CC3)c2n1 [Example 9]
